According to a melting point compilation (Tetko et al.; mined from patent text by program, amines drawn as free bases though some values may be those of a salt):

Row | SMILES | melting point [°C]
1 | Cc1nc(Cl)c(C)c(-c2c(C)c(N)c(C)c3nsnc23)n1 | 105 to 106
2 | Cc1ccccc1OS(=O)(=O)c1cc(S(N)(=O)=O)c(Oc2ccccc2)cc1Cl | 157 to 159
3 | CC(=O)OC1CSC(Oc2c(C#N)ccnc2C)C(OC(C)=O)C1OC(C)=O (centres undefined) | 109 to 113
4 | Cc1c2c(nc3ccccc13)CCN(C(N)=S)CC2 | 218
5 | CCc1ccc2c(c1)c1cc(OC)cc3c(=O)c(Cc4cccnc4)cn2c31 | 109 to 110
6 | CCn1cc(C2(c3cccc(-c4cncc(Cl)c4)c3)N=C(N)N(C)C2=O)cn1 (centres undefined) | 205 to 210
7 | CC[N+]1([O-])CCC(O)(c2cc(F)cc(Cl)c2)C1 (centres undefined) | 158 to 160
8 | Cn1cc(C(=O)NCc2ccc(Cl)cc2)c(=O)c2cc(CN(CCO)Cc3ccccc3)ccc21 | 133 to 135
9 | CCOC1CCC(=O)N1S(=O)(=O)c1ccc(OC)cc1 (centres undefined) | 112 to 113
10 | O=C(Nc1cccc(-c2ncnc3[nH]c(-c4ccncc4)cc23)c1)c1cccc(C(F)(F)F)c1 | > 280
11 | Cn1c(CC(=O)O)c(-c2ccccc2)c2cc(Cl)ccc21 | 141 to 142
12 | COc1ccc(-c2ccc(C(N)=O)cc2)cc1OCCCCc1ccccc1 | 180 to 182
13 | CC(C)CC(S)C(=O)NC(C)(C)C(=O)NC(Cc1ccc(-c2cccs2)nc1)C(=O)O (centres undefined) | 194 to 196
14 | O=C(N[C@H](Cc1cccc(OC(F)(F)C(F)F)c1)[C@@H](O)c1ccnc(F)c1)c1cccc2c1C=CCCC2 (racemic) | 159 to 160
15 | O=c1nc(-c2cccc(Cl)c2)c2cc(Br)ccc2[nH]1 | 281
16 | CC(C)Cn1cnc2c(N)nc3cnccc3c21 | 306 to 307
17 | CCOC(=O)CNCP(=O)(O)O | > 220
18 | Cc1c(NC(=O)c2ccc(OC[C@@H]3CCCO3)cc2)ccc2cc(CNC[C@H]3CCCO3)cnc12 | 92 to 94
19 | CC(=O)N[C@@H](Cc1ccc(-c2c3ccccc3cc3ccccc23)cc1)C(=O)O | 76
20 | CCCCC(C)(C)C(O)CCN1C(=O)NC(=O)C1CCCCCCC(=O)O (centres undefined) | 90 to 98
21 | Cn1c(C(F)(F)F)cc(=O)n(-c2cc(OCc3ccc(C(C)(C)C)cc3)c(Cl)cc2F)c1=O | 156 to 158
22 | CCCCn1ccc(-c2ccc3c(c2)OCCN3C2CCOCC2)c(Cl)c1=O | 141
23 | Clc1ccc(C=Cc2ncon2)cc1 | 134

The next lines start with the values.

Row | melting point [°C] | SMILES
24 | 340 | O=C1NC(N2CCCCCC2)=N/C1=C\c1c[nH]c2ncc(C(F)(F)F)cc12
25 | 156 to 158 | CC1(C)OCc2cc([C@@H](O)CN[C@H]3CCc4ccc(O)cc4C3)ccc2O1
26 | 130 to 132 | CC(C)c1cccc(N2CC(=O)NC(=O)N2)c1
27 | 152 | Cc1cc(-n2nc(C#N)cc2-c2ccc(S(C)(=O)=O)cc2)ccc1Br
28 | 65 to 73 | Cc1ccc2c(c1)S(=O)CC(COC(=O)Nc1ccccc1)(COC(=O)Nc1ccccc1)C2=O (centres undefined)
29 | 203 to 204 | CCc1ccccc1NC(=O)c1ccc(CN2C(=O)C3(COc4cc5c(cc43)CCO5)c3ccccc32)cc1 (centres undefined)
30 | 36 to 37 | Cc1sc(-c2cccs2)cc1Br
31 | 153 to 155 | CCOC(=O)N1CCN(C(c2ccccc2)c2ccccc2)CC1(C)Cc1ccc2c(c1)OCCO2 (centres undefined)
32 | 262 to 264 | COc1ccccc1C1=Nc2ccc(N3CCOCC3)cc2C(=O)C1
33 | 68 to 69 | C=CCOc1ccc(-c2ccc(C#N)cc2)cc1
34 | 100 | CSCC(=O)Nc1ccccc1
35 | 106 to 108 | CC(C)[Si](C(C)C)(C(C)C)C1(CO)c2ccccc2-c2ccccc21
36 | 136 to 137 | O=C(Nc1ccc(Cl)c(C(F)(F)F)c1)C1C(=O)C2CCC(C2)C1=O (centres undefined)
37 | 99.9 to 102 | COc1nc2cc(Cl)ccc2nc1N1CCN(C)CC1
38 | 90 to 92 | COCOc1cc(/C=C/C(=O)/C=C/c2cc(OCOC)cc(OCOC)c2)cc(OCOC)c1
39 | 259 to 260 | Cc1cc(C#N)cc(C)c1Nc1nc(Nc2ccc(C#N)cc2)nc(Cl)c1Br
